Seven compounds from patent US20250083204A1, “CUPRIAVIDUS METALLIDURANS CML2, ITS PREPARATION, AND ITS BIOR[…] FOR HEAVY METAL-CONTAMINATED ENVIRONMENT” (priority 2023, published 2025) can be followed below.

Several values for one entry are separate records, joined by “and”; a condition that tells them apart may be missing. Identical values can stand only once.

Data set [1] relates to Cupriavidus metallidurans CML2. It counts as cell-based. To be noted: for MIC: lowest concentration of heavy metal inhibiting growth of CML2. The source says:
Note that the MIC values refer to the lowest concentration of each heavy metal required to inhibit the growth of Cupriavidus metallidurans CML2.

The next data set relates to rice seedling. As to the kind of experiment: Rice seedling root and shoot growth. The class given is in vivo. To be noted: 14-day cultivation, cadmium alone. The source says:
FIG. 7A-7C are schematic diagrams illustrating an effect of Cupriavidus metallidurans CML2 inoculation on rice seedling growth and cadmium remediation. FIG. 7A illustrates the effects of Cupriavidus metallidurans CML2 on rice seedling morphology; FIG. 7B illustrates the effects of Cupriavidus metallidurans CML2 on relative lengths of the root and shoot under different conditions. C: control, treated with sterile NB medium; CML2: treated with strain CML2; Cd: treated with Cd^2+; CML2+Cd: treated with both CML2 and Cd^2+; FIG. 7C illustrates the effects of Cupriavidus metallidurans CML2 on cadmium accumulation in rice seedling roots and shoots; data represents means±SEM; different letters (a or b) above the columns indicate significant differences between the three groups using one-way ANOVA at P<0.05; “***” indicates statistically significant differences according to a t-test, P<0.001.
To assess the impact of strain CML2 as a facilitator for plant growth and a cadmium remediation agent, Embodiment 8 conducted an analysis on the relative lengths of rice roots and shoots as well as cadmium concentrations, under different treatments: control, Cupriavidus metallidurans CML2 (CML2), cadmium (Cd), and CML2+Cd (Simultaneous treatment with cadmium and CML2). The control group (C) consisted of rice plants cultured in a sterile nutrient solution.

With `[Cd+2]` [Cadmium (Cd^2+), Cadmium], in data set [1], the “tolerance of CML2 to heavy metal” value is 13 mM and 2400 mg/L; the minimum inhibitory concentration (MIC) stood at 13.1 mM. The “inhibition of rice root and shoot growth compared to control” value in the data set on rice seedling is “approximately 89%”.

Take `[Cu+2]` [Copper (Cu^2+), Copper]: the minimal inhibitory concentration (MIC) in data set [1] was found to be 2.0 mM.

In the case of `[Mn+2]` [Manganese (Mn^2+), Manganese], in data set [1], the “tolerance of CML2 to heavy metal” value is 110 mM and the MIC stood at 110 mM.

In data set [1], `[Ni+2]` [Nickel (Ni^2+), Nickel] came in with an MIC of 2.5 mM.

The compound `[Se+4]` [Selenium (Se^4+), Selenium] returned a minimum inhibitory concentration (MIC) in data set [1] of 45 mM.

Consider `[Zn+2]` [Zinc (Zn^2+), Zinc], for which the MIC in data set [1] is 20 mM.

For Mercury [Mercury (Hg^2+)], in data set [1], the “tolerance of CML2 to heavy metal” value is recorded as 0.03 mM and the MIC amounted to 0.03 mM.

The MIC is the smallest concentration in the dilution series that meets the test's criterion for growth inhibition.
